Target: T1, human recombinant Yes [a.a. 2–543 (end)] (Homo sapiens, UniProt P07947)
T1 construct: human recombinant Yes [a.a; 2–543 (end)]; purchased BPS Bioscience 40488
Assay: ADP-Glo kinase assay, inhibition rates of Yes phosphorylation activity (first and second screening)
Type: biochemical
Conditions: first screening; mean of n = 4 wells; 10 μmol L−1 compound
In short: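 ADP-Glo luminescence measured inhibition of human recombinant Yes (a.a. 2–543) phosphorylation activity. In the first screen, each compound ran in 4 wells and inhibition rates were averaged. The second screen retested hits as compounds dissolved from fresh powder.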

T1 sequence (P07947 2-543): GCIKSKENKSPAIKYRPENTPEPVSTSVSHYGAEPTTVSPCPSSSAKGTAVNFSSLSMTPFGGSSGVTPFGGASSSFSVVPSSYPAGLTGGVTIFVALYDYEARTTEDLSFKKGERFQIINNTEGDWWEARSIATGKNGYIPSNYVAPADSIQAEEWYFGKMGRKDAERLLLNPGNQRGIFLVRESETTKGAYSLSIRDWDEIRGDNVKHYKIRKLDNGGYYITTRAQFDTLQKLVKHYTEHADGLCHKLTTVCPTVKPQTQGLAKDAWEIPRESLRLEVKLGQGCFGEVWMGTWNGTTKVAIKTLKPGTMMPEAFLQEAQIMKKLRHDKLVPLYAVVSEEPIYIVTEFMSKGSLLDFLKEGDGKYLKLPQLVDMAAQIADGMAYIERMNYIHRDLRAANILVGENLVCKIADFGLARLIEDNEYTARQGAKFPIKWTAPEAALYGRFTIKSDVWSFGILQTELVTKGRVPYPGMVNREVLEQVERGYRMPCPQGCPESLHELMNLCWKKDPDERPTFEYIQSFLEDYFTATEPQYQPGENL

SMILES	First screening IR (inhibition rate)
COC(=O)c1cc(-c2ccc(F)cc2)nc2c1c(C)nn2C1CCS(=O)(=O)C1 (centres unmarked) [Compound Z90289702]	-1%
CCOc1ccc(-n2c(SCC(=O)c3ccc[nH]3)nnc2-c2ccccc2Cl)cc1 [Compound Z18672879]	7%
Fc1ccccc1-c1nc(SCc2cn3ccccc3n2)n[nH]1 [Compound Z17356722]	0%
Cn1c(SCC(=O)N2c3ccccc3OCC2c2ccccc2)nnc1-c1ccncc1 (centres unmarked) [Compound Z65769442]	-1%
CCC(C)(C)C1C/C(=C/c2ccc(Sc3nncn3C)c([N+](=O)[O-])c2)c2nc3ccccc3c(C(=O)O)c2C1 (centres unmarked) [Compound Z46116775]	11%
O=C(COC(=O)c1ccco1)Nc1nc2ccc([N+](=O)[O-])cc2s1 [Compound Z85929771]	10%
O=C(O)c1c2c(nc3ccccc13)/C(=C\c1ccccc1)CCC2 [Compound Z46035726]	-14%
COc1cc(C(=O)Nc2c(C)cccc2C(C)C)ccc1OCc1c(C)noc1C [Compound Z26400530]	1%
CN(C)c1ccc(C(CNc2ncccc2C#N)c2c[nH]c3ccccc23)cc1 (centres unmarked) [Compound Z31123519]	0%
CC(=O)N1CC=C(c2ccc(Oc3nc(-c4cccnc4)nc4ccccc34)cc2)CC1 [Compound Z196157908]	-13%
C=CCN(CC(=O)Nc1ccc(S(=O)(=O)N2CCOCC2)cc1)S(=O)(=O)c1ccccc1C(F)(F)F [Compound Z24398732]	0%
Cl.Fc1cccc(F)c1-c1cc(-c2ccccc2)c2ccccc2n1 [Compound Z48951059]	4%
CC(C)(C)C1C/C(=C/c2ccc3c(c2)OCO3)c2nc3ccccc3c(C(=O)O)c2C1 (centres unmarked) [Compound Z46108733]	8%
Cc1ccc(-c2c(C)sc3nc(CN4CCN(CC(=O)N5CCOCC5)CC4)[nH]c(=O)c23)cc1 [Compound Z89215884]	5%
O=C(Cc1ccc(F)cc1)N1CCN(S(=O)(=O)Cc2ccccc2)CC1 [Compound Z28905033]	-2%
Cn1c(CNS(=O)(=O)c2ccc(C(F)(F)F)cc2)nc2ccccc21 [Compound Z90694917]	-18%
CCOC(=O)c1cnc(SCC(=O)OC/C(O)=C(\C#N)c2nc3ccccc3[nH]2)nc1N [Compound Z76798588]	5%
NS(=O)(=O)c1ccc(S(=O)(=O)N2CCCC2)cc1 [Compound Z45415601]	-6%
Cl.Fc1ccccc1-c1cc(-c2ccccc2F)c2cc(Cl)ccc2n1 [Compound Z48955797]	11%
Cc1ccc(-c2csc3ncn(CC(=O)NC(CN4CCOCC4)c4ccccc4)c(=O)c23)cc1 (centres unmarked) [Compound Z146890674]	4%
N#Cc1ccccc1CSCCNC(=O)c1ccc2nc[nH]c2c1 [Compound Z88237436]	-1%
Cc1cc(NC(=O)C(C)SCC(=O)Nc2cccc3ncccc23)no1 (centres unmarked) [Compound Z29903633]	-3%
Cl.Oc1ccc(-c2cc(-c3ccccc3Cl)c3cc(Cl)ccc3n2)cc1 [Compound Z48951729]	10%

SMILES	First screening IR (inhibition rate)
Cl.Fc1ccccc1-c1cc(-c2ccccc2)nc2ccc(Cl)cc12 [Compound Z48955825]	-1%
CN(Cc1ccccc1)c1nc(CN2CCOCC2)nc2sc3c(c12)CCC3 [Compound Z31196583]	8%
CCOC(=O)c1c(-c2ccc(C)cc2)csc1Nc1nc2ccccc2nc1N1CCN(CC)CC1 [Compound Z56854384]	-3%
Cc1nn(C)c2ncc(NC(=O)c3cc(-c4ccco4)nc4onc(C)c34)cc12 [Compound Z239539964]	1%
Nc1ncnc(Nc2ccccc2)n1 [Compound Z56768427]	16%
CCN(CC)S(=O)(=O)c1ccc(OC)c(NC(=S)NCc2ccccc2)c1 [Compound Z45779271]	13%
Cc1cc(SC(C)C(=O)Nc2ccc3[nH]c(=O)[nH]c3c2)nc2ccccc12 (centres unmarked) [Compound Z112518822]	-20%
Cl.Oc1ccc(-c2cc(-c3ccccc3)c3ccccc3n2)cc1 [Compound Z48951045]	24%
Cc1cccc(/C=C/c2cc(C(=O)O)c3ccccc3n2)c1 [Compound Z46532935]	46%
Cc1ccc(C(=O)OCc2nc(N)nc(Nc3ccccc3)n2)s1 [Compound Z89671452]	-2%
COC(=O)c1ccc(COc2ccc(/C=C3/CC(C(C)(C)C)Cc4c3nc3ccccc3c4C(=O)O)cc2OC)cc1 (centres unmarked) [Compound Z46108841]	15%
NC(=O)COC(=O)c1cc(-c2ccccc2)nc2c1cnn2Cc1ccccc1 [Compound Z228517946]	4%
O=C(CCC(=O)N1CCC(c2ccccc2)=N1)NCc1cccc(Cl)c1 [Compound Z32361141]	30%
Cc1ccc(-c2nn3c(=O)c4c(C)c(C)sc4nc3c3ccccc23)cc1 [Compound Z55164044]	-6%
O=C(/C=C/c1cn(-c2ccccc2)nc1-c1cccnc1)N1CC=C(c2ccccc2)CC1 [Compound Z29699890]	10%
O=C(Nc1n[nH]c(-c2ccc(F)cc2)n1)c1ccccc1F [Compound Z108549754]	-11%
CC(C)n1ncc2c(C(=O)N3CCN(CC(=O)N4CCOCC4)CC3)cc(-c3ccccc3)nc21 [Compound Z73457343]	7%
Cc1ccc(-c2noc(CN3CCN(Cc4nc5ccccc5c(=O)n4Cc4ccco4)CC3)n2)cc1 [Compound Z235827834]	3%
Cc1ccc(-c2nc(NC(=O)c3ccc(F)cc3F)n[nH]2)cc1 [Compound Z119762582]	-5%
O=C(COc1ccc2ccccc2c1)Nc1nc2ccccc2[nH]1 [Compound Z27666510]	8%
CCn1cnc2c1c(=O)n(CC(=O)N1CCC(Cc3ccccc3)CC1)c(=O)n2Cc1ccccc1 [Compound Z24103907]	9%
O=C(NCCCN1CCCC1=O)c1cc(-c2ccccc2)nc2c1cnn2Cc1cccc(F)c1 [Compound Z116386688]	3%

Second part, the compound after the results:

First screening IR (inhibition rate)	SMILES
2%	CCOC(=O)Cn1ccc2cc(NC(=O)c3sc(-c4ccccc4)nc3C)ccc21 [Compound Z968524204]
1%	CC(C)(C)OC(=O)N1CCCc2cc(NC(=O)c3cnc[nH]3)ccc21 [Compound Z1131596340]
-4%	CCN(CC)C(=O)CN1CCCN(c2ncnc3c2cnn3C)CC1 [Compound Z359324360]
-2%	CN(Cc1ccccc1Cl)S(=O)(=O)c1ccccc1S(C)(=O)=O [Compound Z285666434]
20%	O=[N+]([O-])c1ccc(Nc2cccc(N3CCCC3)c2)c([N+](=O)[O-])c1 [Compound Z729847414]
-12%	CC(C)COCCCNS(=O)(=O)CCCS(=O)(=O)N(C)C [Compound Z1702883776]
1%	COc1cc(CNC(=O)c2ccc[nH]c2=O)ccc1OCC(N)=O [Compound Z666252570]
8%	CC1CCCC(C)N(S(=O)(=O)CCCS(C)(=O)=O)C1 (centres unmarked) [Compound Z1271251540]
5%	CCN(CC)Cc1ccc(C(=O)N2CCC3(C2)NC(=O)NC3=O)cc1 (centres unmarked) [Compound Z1233805260]
-1%	Cc1cc(S(=O)(=O)N(C)CC(=O)N2CCC(O)CC2)cnc1Cl [Compound Z1591866613]
0%	Cc1sc2nc(CN3CCC(C)CC3)nc(N3CCCN(C(=O)Cc4ccccn4)CC3)c2c1C [Compound Z915925636]
-16%	Cc1cc(CN(C)C(=O)NCc2ccc(N3CCCC3=O)cc2)no1 [Compound Z485637938]
3%	N#CCCn1ncc2c(N3CCN(Cc4ccco4)CC3)ncnc21 [Compound Z990852254]
-5%	Cc1cccc(NC(=O)C2CCCN(c3nc(CN4CCOCC4)nc4sc(C)c(C)c34)C2)n1 (centres unmarked) [Compound Z573238670]
1%	NS(=O)(=O)C1CC=CCC1 (centres unmarked) [Compound Z1517090453]
7%	O=c1[nH]cnc2c1c(-c1ccccc1)cn2-c1ccc(F)cc1 [Compound Z314617634]
16%	O=C(/C=C/c1cccnc1)c1ccc(N2CCOC2=O)cc1 [Compound Z970272914]
7%	COc1ccc(C(=O)N2CCCC2)cc1NC(=O)CC1CCCC1 [Compound Z913725738]
-4%	Clc1ccccc1Cn1ncc2c(N3CCOCC3)ncnc21 [Compound Z1172235408]
-3%	CC(=O)c1cccc(COC(=O)c2n[nH]c3c2CCCC3)c1 [Compound Z1515387931]
39%	Cc1cn2nc(NCc3ccc(N4CCNC(=O)C4)cc3)sc2n1 [Compound Z397897560]
9%	Cc1cc(C(=O)Nc2nc3ccccc3n2C2CCCC2)nn1C [Compound Z1251687771]
-12%	CC(C)c1nn(C)c(Cl)c1CNCc1ccc(N2CCOCC2)c(F)c1 [Compound Z635707390]
38%	Cn1nc(Br)c2c(N3CCCC34CCCCC4)ncnc21 [Compound Z1527076521]
33%	CCN(CC)Cc1ccc(CNC(=O)c2ccccc2SCc2cscn2)cc1 [Compound Z283831144]
10%	Cc1nc(-c2ccc(C(=O)OCCCn3cccn3)cc2)n[nH]1 [Compound Z1417129003]

From article PMC5607274, “An iterative compound screening contest method for identifying target protein inhibitors using the tyrosine-protein kinase Yes” (Scientific Reports, 2017)
